Molecules are shown by their SMILES.

A word on the Kd: it is the concentration at which binding is half-saturated. For orientation: EC50 means the concentration at which the effect is half-maximal. A high value points to a need for much substance. Broadly, the Emax is the size of the effect at its maximum, as opposed to the concentration needed.

One test addresses human STAT6 (Homo sapiens (Human), UniProt P42226). In words: Surface plasmon resonance assay (Biacore 8K, binding to immobilized STAT6). As to conditions: human STAT6 aa122-658, N-terminal His-tag, CM5 chip, 25° C.; geometric mean; read-out: STAT6 SPR Kd. Summed up: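 Run at 25° C with His-tagged STAT6 aa122-658 (insect-cell expressed) amine-coupled to a CM5 chip, reference-subtracted, in PBS-P+ with 2% DMSO. Multi-cycle kinetics: 60 sec. contact, up to 300 sec. dissociation. Affinity fitted from late report-point binding isotherms, with Rmax both free and fixed to theoretical 1:1.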

Test [1] concerns Eotaxin-3 (CCL26) release in human whole blood stimulated with IL-4. The test can be described thus: Human whole blood eotaxin-3 assay (IL-4 stimulated, Eotaxin-3 release). It counts as cell-based. As to conditions: Homo sapiens; for EC50: Hec50, 48 h; for Emax: 48 h. The procedure, abridged:
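Lithium-heparin blood preincubated 2 h at 37° C with 4-fold compound dilutions (0.5% DMSO, triplicates), then stimulated with 400 pM recombinant human IL-4 for 48 h. Eotaxin-3 in plasma supernatant measured by MSD immunoassay.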

human STAT6, sequence (P42226 122-658): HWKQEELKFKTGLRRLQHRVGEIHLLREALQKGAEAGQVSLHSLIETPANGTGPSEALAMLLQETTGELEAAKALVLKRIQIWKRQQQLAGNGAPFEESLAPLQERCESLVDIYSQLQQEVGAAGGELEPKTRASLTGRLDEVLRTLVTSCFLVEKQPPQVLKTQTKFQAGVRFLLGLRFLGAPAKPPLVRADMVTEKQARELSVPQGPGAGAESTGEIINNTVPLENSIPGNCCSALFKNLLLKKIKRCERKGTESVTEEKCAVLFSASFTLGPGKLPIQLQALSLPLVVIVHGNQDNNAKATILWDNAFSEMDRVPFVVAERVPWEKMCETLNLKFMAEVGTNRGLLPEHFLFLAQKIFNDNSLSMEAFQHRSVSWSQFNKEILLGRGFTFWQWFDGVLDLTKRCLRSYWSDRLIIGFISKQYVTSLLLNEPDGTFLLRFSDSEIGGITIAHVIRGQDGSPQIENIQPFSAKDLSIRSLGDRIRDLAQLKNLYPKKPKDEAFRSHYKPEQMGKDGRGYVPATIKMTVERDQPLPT

Regarding `[2H]C([2H])([2H])N(C(=O)c1ccc(C2CCN([C@H](C)c3cc4c(-c5ccc(N)cn5)ccnc4n3C)CC2)cc1)C([2H])([2H])[2H]` [Example 1af36, (R)-4-(1-(1-(4-(5-aminopyridin-2-yl)-1-methyl-1H-pyrrolo[2,3-b]pyridin-2-yl)ethyl)piperidin-4-yl)-N,N-bis(methyl-d3)benzamide], the Kd on human STAT6 came out at 15.7 nM. For the same compound, the EC50 in test [1] was determined as 404 nM.
Taken in the same sequence, the figures for `[2H]C([2H])([2H])N(C(=O)c1ccc(C2CCN([C@@H](C)c3cc4c(-c5ccc(N)nc5C#N)ccnc4n3C)CC2)c(C)c1)C([2H])([2H])[2H]` [Example 1af37, (S)-4-(1-(1-(4-(6-Amino-2-cyanopyridin-3-yl)-1-methyl-1H-pyrrolo[2,3-b]pyridin-2-yl)ethyl)piperidin-4-yl)-3-methyl-N,N-bis(methyl-d3)benzamide] were 57.7 nM and 699 nM.
Consider `CNc1ccc(-c2ccnc3c2cc([C@H](C)N2CCC(c4ccc(C(=O)N(C)C)cc4)CC2)n3C)c(C#N)n1` [Example 1af39, (S)-4-(1-(1-(4-(2-xyano-6-(methylamino)pyridin-3-yl)-1-methyl-1H-pyrrolo-[2,3-b]pyridin-2-yl)ethyl)piperidin-4-yl)-N,N-dimethylbenzamide], for which, at human STAT6, the Kd is 32.7 nM. Further, in test [1], the EC50 was 115 nM.
Taken in the same sequence, the figures for `CNc1ccc(-c2ccnc3c2cc([C@@H](C)N2CCC(c4ccc(C(=O)N(C)C)cc4)CC2)n3C)c(C#N)n1` [Example 1af40, (R)-4-(1-(1-(4-(2-cyano-6-(methyl-amino)pyridin-3-yl)-1-methyl-1H-pyrrolo[2,3-b]pyridin-2-yl)ethyl)piperidin-4-yl)-N,N-dimethylbenzamide] were 2190 nM and 44400 nM.
Turning to `Cc1cc(C(=O)N(C)C)ccc1C1=CCN([C@@H](C)c2cc3c(-c4ccc(N)nc4C#N)ccnc3n2C)CC1` [Example 1af44, (S)-4-(1-(1-(4-(6-Amino-2-cyanopyridin-3-yl)-1-methyl-1H-pyrrolo[2,3-b]-pyridin-2-yl)ethyl)-1,2,3,6-tetrahydropyridin-4-yl)-N,N,3-trimethylbenzamide], on human STAT6, the dissociation constant (Kd) came to 352 nM. In test [1], a half-maximal effect (EC50) was put at 15900 nM.
Regarding `Cc1cc(C(=O)N(C)C)ccc1C1=CCN([C@H](C)c2cc3c(-c4ccc(N)nc4C#N)ccnc3n2C)CC1` [Example 1af45, (R)-4-(1-(1-(4-(6-amino-2-cyanopyridin-3-yl)-1-methyl-1H-pyrrolo[2,3-b]pyridin-2-yl)ethyl)-1,2,3,6-tetrahydropyridin-4-yl)-N,N,3-trimethylbenzamide], the Kd on human STAT6 came out at 21.6 nM. This compound also returned an EC50 in test [1] of 41 nM.
For the compound `[2H]C([2H])([2H])N(C(=O)c1ccc(C2=CCN([C@H](C)c3cc4c(-c5ccc(N)cn5)ccnc4n3C)CC2)cc1)C([2H])([2H])[2H]` [Example 1af46, (R)-4-(1-(1-(4-(5-amino-pyridin-2-yl)-1-methyl-1H-pyrrolo[2,3-b]pyridin-2-yl)ethyl)-1,2,3,6-tetrahydro-pyridin-4-yl)-N,N-bis(methyl-d3)benzamide], the equilibrium dissociation constant (Kd) at human STAT6 came out at 48.3 nM. The compound also gave an EC50 in test [1] of 760 nM.
Taken in the same sequence, the figures for `CN(C)C(=O)c1ccc(C2CCN(Cc3cc4c(-c5ccc(N)nc5)ccnc4n3C)CC2)cc1` [Example 1k3, 4-[1-[[4-(6-Amino-3-pyridyl)-1-methyl-pyrrolo[2,3-b]pyridin-2-yl]methyl]-4-piperidyl]-N,N-dimethyl-benzamide] were 11.4 nM and 6000 nM.
With `CN(C)C(=O)c1ccc(C2CCN(Cc3cc4c(-c5ccc(N)c(C(=O)O)c5)ccnc4n3C)CC2)cc1` [Example 1k6, 2-Amino-5-[2-[[4-[4-(dimethylcarbamoyl)phenyl]-1-piperidyl]methyl]-1-methyl-pyrrolo[2,3-b]pyridin-4-yl]benzoic acid], at human STAT6, the Kd was found to be 9.05 nM. The same compound registered a maximum response (Emax) in test [1] of 57%.
Take `Cc1cc(-c2ccnc3c2cc(CN2CCC(c4ccc(C(=O)N(C)C)cc4)CC2)n3C)cnc1N` [Example 1k11, 4-[1-[[4-(6-Amino-5-methyl-3-pyridyl)-1-methyl-pyrrolo[2,3-b]pyridin-2-yl]methyl]-4-piperidyl]-N,N-dimethyl-benzamide]: the dissociation constant Kd on human STAT6 was determined as 30.5 nM. The EC50 in test [1] is 6590 nM.
In the same order, the values of `CN(C)C(=O)c1ccc(C2CCN(Cc3cc4c(-c5cnc(N)nc5)ccnc4n3C)CC2)cc1` [Example 1k13, 4-[1-[[4-(2-Aminopyrimidin-5-yl)-1-methyl-pyrrolo[2,3-b]pyridin-2-yl]methyl]-4-piperidyl]-N,N-dimethyl-benzamide] are 87.7 nM and 14200 nM.
Turning to `CN(C)C(=O)c1ccc(C2CCN(Cc3cc4c(-c5cnc(N)c(F)c5)ccnc4n3C)CC2)cc1` [Example 1k14, 4-[1-[[4-(6-Amino-5-fluoro-3-pyridyl)-1-methyl-pyrrolo[2,3-b]pyridin-2-yl]methyl]-4-piperidyl]-N,N-dimethyl-benzamide], the Kd on human STAT6 was 37.2 nM. This compound showed an Emax in test [1] of 65.6%.
Take `COc1nc(N)ccc1-c1ccnc2c1cc(CN1CCC(c3ccc(C(=O)N(C)C)cc3)CC1)n2C` [Example 1k22, 4-[1-[[4-(6-Amino-2-methoxy-3-pyridyl)-1-methyl-pyrrolo[2,3-b]pyridin-2-yl]methyl]-4-piperidyl]-N,N-dimethyl-benzamide]: the Kd on human STAT6 is 22.3 nM. In test [1], the EC50 amounted to 1490 nM.
Turning to `CN(C)C(=O)c1ccc(C2CCN(Cc3cc4c(-c5ccc(N)nc5C#N)ccnc4n3C)CC2)cc1` [Example 1k43, 4-[1-[[4-(6-Amino-2-cyano-3-pyridyl)-1-methyl-pyrrolo[2,3-b]pyridin-2-yl]methyl]-4-piperidyl]-N,N-dimethyl-benzamide], the Kd at human STAT6 worked out at 31.4 nM. The compound further came in with an EC50 in test [1] of 871 nM.
For the compound `CNc1cc(C)c(-c2ccnc3c2cc(CN2CCC(c4ccc(C(=O)N(C)C)cc4)CC2)n3C)cn1` [Example 1k51, N,N-Dimethyl-4-[1-[[1-methyl-4-[4-methyl-6-(methylamino)-3-pyridyl]pyrrolo[2,3-b]pyridin-2-yl]methyl]-4-piperidyl]benzamide], on human STAT6, the Kd worked out at 80.5 nM. The same compound registered an Emax in test [1] of 43%.
Consider `CN(C)C(=O)c1ccc(C2CCN(Cc3cc4c(-c5ccc(N)cn5)ccnc4n3C)CC2)cc1` [Example 1k66, 4-(1-((4-(5-Aminopyridin-2-yl)-1-methyl-1H-pyrrolo[2,3-b]pyridin-2-yl)methyl)piperidin-4-yl)-N,N-dimethylbenzamide], for which the Kd on human STAT6 worked out at 18.8 nM. Besides, the EC50 in test [1] came out at 6620 nM.
In the case of `CNc1ccc(-c2ccnc3c2cc(CN2CCC(c4ccc(C(=O)N(C)C)cc4)CC2)n3C)nc1` [Example 1k69, N,N-Dimethyl-4-(1-((1-methyl-4-(5-(methylamino)pyridin-2-yl)-1H-pyrrolo[2,3-b]pyridin-2-yl)methyl)piperidin-4-yl)benzamide], the Kd at human STAT6 was 53.5 nM. In addition, the Emax in test [1] came to 72%.
Taken in the same sequence, the figures for `CNc1ccc(-c2ccnc3c2cc(CN2CCC(c4ccc(C(=O)N(C)C)cc4)CC2)n3C)nn1` [Example 1k71, N,N-Dimethyl-4-[1-[[1-methyl-4-[6-(methylamino)pyridazin-3-yl]pyrrolo[2,3-b]pyridin-2-yl]methyl]-4-piperidyl]benzamide] were 22.6 nM and 78.8%.
Turning to `Cc1nc(-c2ccnc3c2cc(CN2CCC(c4ccc(C(=O)N(C)C)cc4)CC2)n3C)ccc1N` [Example 1k73, 4-[1-[[4-(5-Amino-6-methyl-2-pyridyl)-1-methyl-pyrrolo[2,3-b]pyridin-2-yl]methyl]-4-piperidyl]-N,N-dimethyl-benzamide], on human STAT6, the Kd is 50.3 nM. The compound further came in with a 50% effective concentration (EC50) in test [1] of 7610 nM.
Taken in the same sequence, the figures for `CNc1ccc(-c2ccnc3c2cc(CN2CCC(c4ccc(C(=O)N(C)C)cc4F)CC2)n3C)nc1` [Example 1o23, 3-Fluoro-N,N-dimethyl-4-[1-[[1-methyl-4-[5-(methylamino)-2-pyridyl]pyrrolo[2,3-b]pyridin-2-yl]methyl]-4-piperidyl]benzamide] were 30.6 nM and 2460 nM.
Taken in the same sequence, the figures for `CNc1ccc(-c2ccnc3c2cc([C@H](C)N2CCC(c4ccc(C(=O)N(C)C)cc4)CC2)n3C)nc1` [Example 1o24, (S)—N,N-dimethyl-4-(1-(1-(1-methyl-4-(5-(methylamino)pyridin-2-yl)-1H-pyrrolo[2,3-b]pyridin-2-yl)ethyl)piperidin-4-yl)benzamide] were 31.2 nM and 444 nM.
For the compound `CNc1ccc(-c2ccnc3c2cc(CN2CC[C@@H](c4ccc(C(=O)N(C)C)cc4)C[C@H]2C)n3C)nc1` [Example 1o26, N,N-dimethyl-4-((2R,4R)-2-methyl-1-((1-methyl-4-(5-(methylamino)-pyridin-2-yl)-1H-pyrrolo[2,3-b]pyridin-2-yl)methyl)piperidin-4-yl)benzamide], the Kd at human STAT6 was found to be 32.4 nM. In test [1], the EC50 was determined as 458 nM.
In the same order, the values of `CNc1ccc(-c2ccnc3c2cc(CN2CCN(c4ccc(C(=O)N(C)C)cc4)CC2)n3C)nn1` [Example 1p1, N,N-Dimethyl-4-[4-[[1-methyl-4-[6-(methylamino)pyridazin-3-yl]pyrrolo[2,3-b]pyridin-2-yl]methyl]piperazin-1-yl]benzamide] are 329 nM and 76000 nM.
Taken in the same sequence, the figures for `CNc1ccc(-c2ccnc3c2cc(CN2CCC(c4ccc(C(=O)N(C)C)cc4C)CC2)n3C)nn1` [Example 1p2, N,N,3-Trimethyl-4-[1-[[1-methyl-4-[6-(methylamino)pyridazin-3-yl]pyrrolo[2,3-b]pyridin-2-yl]methyl]-4-piperidyl]benzamide] were 70.1 nM and 14100 nM.

The values above are taken from patent US20250340551A1, “SMALL MOLECULE MODULATORS OF STAT6” (Gilead Sciences, Inc., priority 2024, published 2025).
